Data from patent US10421774B2 (priority 2016, dated 2019).

Columns and labels:
Experiment in all cases: microbe, parasite or virus in culture
Format in all cases: cell-based, HIV-1
[1] = test system: A364V site directed mutant virus; details: Human immunodeficiency virus 1, MT2, read-out: A364V EC50
Procedure, shortened: (§1)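 Virus yield quantified by Renilla luciferase after 4–5 day culture at 37°C of MT-2 cells (10,000/well) with 3-fold serially diluted compound at 1% final DMSO. Reporter viruses were NL4-3 P373S derivatives bearing Gag A364V or V370A/ΔT371, inputs matched on luciferase endpoint.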

gag V370A/ΔT371 virus = details: Human immunodeficiency virus 1, MT2, read-out: V370A/ΔT371 EC50
Procedure, shortened: as §1

[2] = test system: NLRepRlucP373S recombinant wild type (WT) virus; details: Human immunodeficiency virus 1, MT2, read-out: WT EC50
Procedure, shortened: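 Multiple-cycle assay: luciferase-normalized NL4-3-derived NLRepRlucP373S (Renilla luciferase in place of nef) infects MT-2 cells, 10,000 cells/well, with 3-fold compound dilutions at 1% DMSO, 4-5 days, 37 °C. EC50 and EC90 fitted by median effect equation against Renilla luminescence, with residual signal under 3 μM NFV as background.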

[3] = test system: T332S/V362I/Pr R41G virus; details: Human immunodeficiency virus 1, MT2, read-out: T332S/V362I/pr41G EC50
Procedure, shortened: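 Multiple-cycle susceptibility: MT-2 cells, 10,000 per well, exposed to 3-fold compound dilutions at 1% DMSO after infection with luciferase-normalized inoculum. Virus: NL4-3-derived Renilla reporter (Gag P373S) with Gag T332S/V362I and protease R41G. Readout Renilla luciferase after 4–5 days, 37 °C.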

| SMILES | EC50 [1] [nM] | EC50 (gag V370A/ΔT371 virus) [nM] | EC50 [2] [nM] | EC50 [3] [nM] |
| --- | --- | --- | --- | --- |
| C=C(C)[C@@H]1CC[C@]2(NCCN3CCS(=O)(=O)CC3)CC[C@]3(C)[C@H](CC[C@@H]4[C@@]5(C)CC=C(C6=CCC(COc7cccc(C(N)=O)n7)(C(=O)O)CC6)C(C)(C)[C@@H]5CC[C@]43C)[C@@H]12 (stereo partly drawn) [Example 40, 1-(((6-carbamoylpyridin-2-yl)oxy)methyl)-4-((1R,3aS,5aR,5bR,7aR,11aS,11bR,13aR,13bR)-3a-((2-(1,1-dioxidothiomorpholino)ethyl)amino)-5a,5b,8,8,11a-pentamethyl-1-(prop-1-en-2-yl)-2,3,3a,4,5,5a,5b,6,7,7a,8,11,11a,11b,12,13,13a,13b-octadecahydro-1H-cyclopenta[a]chrysen-9-yl)cyclohex-3-ene-1-carboxylic acid] | 271 | 233 | 4 | 233 |
| C=C(C)[C@@H]1CC[C@]2(NCCN3CCS(=O)(=O)CC3)CC[C@]3(C)[C@H](CC[C@@H]4[C@@]5(C)CC=C(C6=CCC(CCOc7cc(C#N)ccn7)(C(=O)O)CC6)C(C)(C)[C@@H]5CC[C@]43C)[C@@H]12 (stereo partly drawn) [Example A24, 1-(2-((4-cyanopyridin-2-yl)oxy)ethyl)-4-((1R,3aS,5aR,5bR,7aR,11aS,11bR,13aR,13bR)-3a-((2-(1,1-dioxidothiomorpholino)ethyl)amino)-5a,5b,8,8,11a-pentamethyl-1-(prop-1-en-2-yl)-2,3,3a,4,5,5a,5b,6,7,7a,8,11,11a,11b,12,13,13a,13b-octadecahydro-1H-cyclopenta[a]chrysen-9-yl)cyclohex-3-ene-1-carboxylic acid] | 7 | 3000 | 1 | 3000 |
| C=C(C)[C@@H]1CC[C@]2(NCCN3CCS(=O)(=O)CC3)CC[C@]3(C)[C@H](CC[C@@H]4[C@@]5(C)CC=C(C6=CC[C@](COc7ccncn7)(C(=O)O)CC6)C(C)(C)[C@@H]5CC[C@]43C)[C@@H]12 [Example 21] | < 50 | > 50 | < 50 | > 50 |
| C=C(C)[C@@H]1CC[C@]2(NCC(C)(O)C(=O)O)CC[C@]3(C)[C@H](CC[C@@H]4[C@@]5(C)CC=C(C6=CC[C@](COc7ncccc7C#N)(C(=O)O)CC6)C(C)(C)[C@@H]5CC[C@]43C)[C@@H]12 (stereo partly drawn) [Example A19, (1R)-4-((1R,3aS,5aR,5bR,7aR,11aS,11bR,13aR,13bR)-3a-((2-carboxy-2-hydroxypropyl)amino)-5a,5b,8,8,11a-pentamethyl-1-(prop-1-en-2-yl)-2,3,3a,4,5,5a,5b,6,7,7a,8,11,11a,11b,12,13,13a,13b-octadecahydro-1H-cyclopenta[a]chrysen-9-yl)-1-(((3-cyanopyridin-2-yl)oxy)methyl)cyclohex-3-enecarboxylic acid] | > 50 | 20 | 3 | 20 |
| C=C(C)[C@@H]1CC[C@]2(NCCN3CCS(=O)(=O)CC3)CC[C@]3(C)[C@H](CC[C@@H]4[C@@]5(C)CC=C(C6=CCC(COc7cccnn7)(C(=O)O)CC6)C(C)(C)[C@@H]5CC[C@]43C)[C@@H]12 (stereo partly drawn) [Example 19, 4-((1R,3aS,5aR,5bR,7aR,11aS,11bR,13aR,13bR)-3a-((2-(1,1-dioxidothiomorpholino)ethyl)amino)-5a,5b,8,8,11a-pentamethyl-1-(prop-1-en-2-yl)-2,3,3a,4,5,5a,5b,6,7,7a,8,11,11a,11 b,12,13,13a,13b-octadecahydro-1H-cyclopenta[a]chrysen-9-yl)-1-((pyridazin-3-yloxy)methyl)cyclohex-3-ene-1-carboxylic acid] | 36 | 47 | 3 | 47 |
| C=C(C)[C@@H]1CC[C@]2(NC[C@H](O)C(=O)O)CC[C@]3(C)[C@H](CC[C@@H]4[C@@]5(C)CC=C(C6=CC[C@](COc7ncccc7C(N)=O)(C(=O)O)CC6)C(C)(C)[C@@H]5CC[C@]43C)[C@@H]12 [Example A18] | 192 | 27 | 8 | 27 |
| C=C(C)[C@@H]1CC[C@]2(NCCN3CCS(=O)(=O)CC3)CC[C@]3(C)[C@H](CC[C@@H]4[C@@]5(C)CC=C(C6=CCC(COc7ncccn7)(C(=O)O)CC6)C(C)(C)[C@@H]5CC[C@]43C)[C@@H]12 (stereo partly shown) [Example 34] | < 50 | 13 | 2 | 13 |
| C=C(C)[C@@H]1CC[C@]2(NC[C@@](C)(O)CO)CC[C@]3(C)[C@H](CC[C@@H]4[C@@]5(C)CC=C(C6=CC[C@](COc7ncccc7C#N)(C(=O)O)CC6)C(C)(C)[C@@H]5CC[C@]43C)[C@@H]12 [Example A13, (R)-1-(((3-cyanopyridin-2-yl)oxy)methyl)-4-((1R,3aS,5aR,5bR,7aR,11aS,11bR,13aR,13bR)-3a-(((R)-2,3-dihydroxy-2-methylpropyl)amino)-5a,5b,8,8,11a-pentamethyl-1-(prop-1-en-2-yl)-2,3,3a,4,5,5a,5b,6,7,7a,8,11,11a,11b,12,13,13a,13b-octadecahydro-1H-cyclopentalalchrysen-9-yl)cyclohex-3-enecarboxylic acid] | 831 | 27 | 2 | 27 |
| C=C(C)[C@@H]1CC[C@]2(NCCN3CCS(=O)(=O)CC3)CC[C@]3(C)[C@H](CC[C@@H]4[C@@]5(C)CC=C(C6=CC[C@](COc7ncccc7C#N)(C(=O)O)CC6)C(C)(C)[C@@H]5CC[C@]43C)[C@@H]12 [Example 23, (R)-1-(((3-cyanopyridin-2-yl)oxy)methyl)-4-((1R,3aS,5aR,5bR,7aR,11aS,11bR,13aR,13bR)-3a-((2-(1,1-dioxidothiomorpholino)ethyl)amino)-5a,5b,8,8,11a-pentamethyl-1-(prop-1-en-2-yl)-2,3,3a,4,5,5a,5b,6,7,7a,8,11,11a,11b,12,13,13a,13b-octadecahydro-1H-cyclopenta[a]chrysen-9-yl)cyclohex-3-ene-1-carboxylic acid] | > 50 | < 50 | 2 | 6 |
| C=C(C)c1cc(OCC2(C(=O)O)CC=C(C3=CC[C@]4(C)[C@H]5CC[C@@H]6[C@H]7[C@H](C(=C)C)CC[C@]7(NCCN7CCS(=O)(=O)CC7)CC[C@@]6(C)[C@]5(C)CC[C@H]4C3(C)C)CC2)ns1 (stereo partly shown) [Example 18] | 11 | < 50 | 2 | 14 |
| C=C(C)[C@@H]1CC[C@]2(NC[C@H](O)COC)CC[C@]3(C)[C@H](CC[C@@H]4[C@@]5(C)CC=C(C6=CC[C@](COc7ncccc7C#N)(C(=O)O)CC6)C(C)(C)[C@@H]5CC[C@]43C)[C@@H]12 [Example A11, (R)-1-(((3-cyanopyridin-2-yl)oxy)methyl)-4-((1R,3aS,5aR,5bR,7aR,11aS,11bR,13aR,13bR)-3a-(((S)-2-hydroxy-3-methoxypropyl)amino)-5a,5b,8,8,11a-pentamethyl-1-(prop-1-en-2-yl)-2,3,3a,4,5,5a,5b,6,7,7a,8,11,11a,11b,12,13,13a,13b-octadecahydro-1H-cyclopentalalchrysen-9-yl)cyclohex-3-enecarboxylic acid] | 281 | 17 | 11 | 17 |
| C=C(C)[C@@H]1CC[C@]2(NCCN3CCS(=O)(=O)CC3)CC[C@]3(C)[C@H](CC[C@@H]4[C@@]5(C)CC=C(C6=CCC(CCOc7cc(C(=O)O)ccn7)(C(=O)O)CC6)C(C)(C)[C@@H]5CC[C@]43C)[C@@H]12 (stereo partly drawn) [Example A23, 2-(2-(1-carboxy-4-((1R,3aS,5aR,5bR,7aR,11aS,11bR,13aR,13bR)-3a-((2-(1,1-dioxidothiomorpholino)ethyl)amino)-5a,5b,8,8,11a-pentamethyl-1-(prop-1-en-2-yl)-2,3,3a,4,5,5a,5b,6,7,7a,8,11,11a,11b,12,13,13a,13b-octadecahydro-1H-cyclopenta[a]chrysen-9-yl)cyclohex-3-en-1-yl)ethoxy)isonicotinic acid] | 333 | > 50 | 7 | 193 |
| C=C(C)[C@@H]1CC[C@]2(NCCC3(O)CCS(=O)(=O)CC3)CC[C@]3(C)[C@H](CC[C@@H]4[C@@]5(C)CC=C(C6=CCC(COc7ccccn7)(C(=O)O)CC6)C(C)(C)[C@@H]5CC[C@]43C)[C@@H]12 (stereo partly drawn) [Example 33, 4-((1R,3aS,5aR,5bR,7aR,11aS,11bR,13aR,13bR)-3a-((2-(4-hydroxy-1,1-dioxidotetrahydro-2H-thiopyran-4-yl)ethyl)amino)-5a,5b,8,8,11a-pentamethyl-1-(prop-1-en-2-yl)-2,3,3a,4,5,5a,5b,6,7,7a,8,11,11a,11b,12,13,13a,13b-octadecahydro-1H-cyclopenta[a]chrysen-9-yl)-1-((pyridin-2-yloxy)methyl)cyclohex-3-ene-1-carboxylic acid] | 16 | < 50 | 5 | < 50 |
